Experimental data as given in patent US9181189B2, “Lipogenesis inhibitor compounds” (PIERRE FABRE DERMO-COSMETIQUE, priority 2011, dated 2015).

Key:
[1] = test system: differentiated sebocytes (Tel-E6E7 line); test: Production of intracellular lipids by differentiated sebocytes (Nile Red / Adipored quantitation); assay type: cell-based, human; conditions: for production of lipids by the sebocytes: Tel-E6E7 line differentiated 7 days in the presence of testosterone and other supplements, FIG. 1; for inhibitor effect on lipogenesis directly induced by DHT: Tel-E6E7 line differentiated in the presence of DHT and other supplements, FIG. 2
Procedure: The Tel-E6E7 line (courtesy of Dr. Stephen Lyle, University of Massachusetts, USA) is a human epithelial line derived from stem cells of the hair follicle bulb.
Differentiation into sebocytes of the Tel-E6E7 line was conducted under the conditions described by S. Lyle. The cells were seeded in 24-well plates at a density of 25 000 cells/cm^2 in DME medium supplemented with 46% HamF12 medium, 6% foetal calf serum (FCII, Hyclone), 2% human serum and 10 nM EGF. Two days after seeding, the differentiation of the cells into sebocytes was induced by adding the following supplements to the culture medium: 0.1 μM testosterone (or DHT (0.1 μM)), 1 μM Troglitazone, 100 μM WyA4643 and 10 nM Insulin. The derivatives to be tested were added at the same time. Sebocyte differentiation was continued for 7 days. The culture medium and the derivatives to be tested were renewed every 2-3 days. The production of intracellular lipids was measured by quantitation of the Nile Red marker (Adipored kit, Lonza) and following the manufacturer's instructions. The amount of measured fluorescence (Relative Fluorescence Units) is proportional to the quantity of accumulated neutral intracellular lipids. All tested conditions were performed in duplicate and repeated three times.
The inventors studied the variations in lipid levels produced by the sebocytes after a differentiation time of 7 days in the presence of testosterone treated with the derivatives of the present invention.

type-1 5-α-reductase = biological target: T1, type-1 5-α-reductase (Homo sapiens, UniProt P18405); conditions: fibroblast cultures; cited from earlier work
T1 construct: endogenous in cells
T1 sequence (P18405 1-259): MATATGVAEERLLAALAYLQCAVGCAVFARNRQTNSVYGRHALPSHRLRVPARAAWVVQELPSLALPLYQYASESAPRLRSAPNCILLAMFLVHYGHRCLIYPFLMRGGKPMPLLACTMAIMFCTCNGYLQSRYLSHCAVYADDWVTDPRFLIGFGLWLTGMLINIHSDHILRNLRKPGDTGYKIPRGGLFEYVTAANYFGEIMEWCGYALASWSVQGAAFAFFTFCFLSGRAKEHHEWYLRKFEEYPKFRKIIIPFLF

Compound | production of lipids by the sebocytes ([1]; 10 μM) | production of lipids by the sebocytes ([1]; 5 μM) | inhibiting effect on type-1 5-α-reductase (type-1 5-α-reductase) | inhibitor effect on lipogenesis directly induced by DHT [1]
CCCCCCCCCCCC(=O)OCC(O)COC(=O)C1CCCNC1 (centres unmarked) [3-(dodecanoyloxy)-2-hydroxypropyl piperidine-3-carboxylate] | significant decrease |  |  | 
CCCCCCCCCCCC(=O)OCC(O)COC(=O)c1cccnc1 (centres unmarked) [glyceryl laurate nicotinate, 3-(dodecanoyloxy)-2-hydroxypropyl nicotinate] | decreases most significantly | decreases most significantly |  | 
CCCCCCCCCCCC(=O)OCC(O)CO (centres unmarked) [glyceryl laurate, 2,3-dihydroxypropyl dodecanoate] | does not reach the significance threshold | does not reach the significance threshold | inhibiting effect | 
O=C(O)c1cccnc1 [nicotinic acid] |  |  |  | do not show any inhibitor effect
O=C(O)C1CCCNC1 (centres unmarked) [nipecotic acid] |  |  |  | do not show any inhibitor effect
